Values joined by “and” are separate entries in the source; they are usually repeats but may differ in a detail not shown here. Equal values may be shown once.

This is an account of results in US20190069542A1, “COMPOSITIONS AND METHODS FOR REPELLING AND KILLING TICKS AND DETACHMENT OF FEEDING TICKS” (EVOLVA SA, priority 2016, published 2019).

Data set [1] concerns ticks. In words: Shell-vial bioassay of morbidity and mortality of ticks. The class given is in vivo. As to conditions: for LC50: calculated at 24 hours from Table No. 7. As to the method:
Next, a shell-vial bioassay was performed to determine whether the nootkatone of the test products (i.e., space spray, lotion, and soap) lost biocidal activity due to the formulation process. The nootkatone derivatives from Example No. 1 were also tested to determine relative biocidal activity. Serial dilutions of each 2% product and nootkatone derivatives were made for a total of 8 concentrations per formulation/derivative. Controls included untreated controls and a nootkatone in acetone composition as a positive control. One hundred and fifty microliters of each concentration was added to a 1 dram glass shell vial and allowed to dry (see FIGS. 3A and 3B).
Each shell vial with ticks added was placed in a humid container, and morbidity and mortality of ticks were determined at 1 hr and 24 hr post-treatment. Each experiment was performed twice and the results averaged. […]

Data set [2] in a line: Solvent dissolution tests of nootkatone. The following applies: data not shown. The format is physicochemical. Here is the method:
Initially, solvent dissolution tests of nootkatone were performed.

With `C=C(C)[C@@H]1CCC2CC(=O)C[C@@H](C)[C@]2(C)C1` (stereo partly shown) [1,10 dihydronootkatone, 1,10-dihydronootkatone], the “# Alive/10” value in data set [1] (0.002%, 1 hr) is 10; in data set [1] (0.002%, 24 hr), 9; in data set [1] (0.004%, 1 hr), 10; in data set [1] (0.004%, 24 hr) it was 10; in data set [1] (0.008%, 1 hr), 10; in data set [1] (0.008%, 24 hr), 6. The “# Alive/10” value in data set [1] (0.016%, 1 hr) came to 10; in data set [1] (0.016%, 24 hr), 6; in data set [1] (0.031%, 1 hr) it was 10; in data set [1] (0.031%, 24 hr), 3; in data set [1] (0.063%, 1 hr) it was 10; in data set [1] (0.063%, 24 hr), 1. Moreover, the “# Alive/10” value in data set [1] (0.125%, 1 hr) was determined as 10; in data set [1] (0.125%, 24 hr), 2; in data set [1] (0.25%, 1 hr), 10; in data set [1] (0.25%, 24 hr), 1. The LC50 in data set [1] was 0.0097%.

As to `CC(C)C1CCC2=CC(=O)CC(C)C2(C)C1` (stereo not shown) [11,12 dihydronootkatone, 11,12-dihydronootkatone], the “# Alive/10” value in data set [1] (0.002%, 1 hr) was found to be 10; in data set [1] (0.002%, 24 hr), 6; in data set [1] (0.004%, 1 hr) it was 10; in data set [1] (0.004%, 24 hr), 7; in data set [1] (0.008%, 1 hr) it was 10; in data set [1] (0.008%, 24 hr), 1. The “# Alive/10” value worked out at 10 in data set [1] (0.016%, 1 hr); 0 in data set [1] (0.016%, 24 hr); 10 in data set [1] (0.031%, 1 hr); 0 in data set [1] (0.031%, 24 hr); 10 in data set [1] (0.063%, 1 hr); 0 in data set [1] (0.063%, 24 hr). In addition, the “# Alive/10” value in data set [1] (0.125%, 1 hr) is recorded as 2; in data set [1] (0.125%, 24 hr) it was 0; in data set [1] (0.25%, 1 hr) it was 2; in data set [1] (0.25%, 24 hr), 0. In data set [1], the LC50 is 0.0071%.

Regarding `C=C(C)[C@@H]1CCC2=CC(=O)C[C@@H](C)[C@]2(C)C1` [Nootkatone, nootkatone], the “# Alive/10” value is 7 and 5 in data set [1] (0.01%, 1 hr); 5 and 7 in data set [1] (0.01%, 24 hr); 5 in data set [1] (0.02%, 1 hr); 0 in data set [1] (0.02%, 24 hr); 4 in data set [1] (0.03%, 1 hr); 0 in data set [1] (0.03%, 24 hr). The “# Alive/10” value is 4 in data set [1] (0.06%, 1 hr); 0 in data set [1] (0.06%, 24 hr); 4 in data set [1] (0.13%, 1 hr); 0 in data set [1] (0.13%, 24 hr); 3 and 2 in data set [1] (0.25%, 1 hr); 0 in data set [1] (0.25%, 24 hr). The “# Alive/10” value in data set [1] (0.5%, 24 hr) worked out at 0. Also, in data set [1] (listed as Nootkatone control), the LC50 was 0.0074% and 0.0073%. In addition, the “dissolution of nootkatone in solvent” value in data set [2] (glycerin) and in data set [2] (water) was “unable to successfully dissolve” each time.

Take `CC(C)[C@@H]1CCC2CC(=O)C[C@@H](C)[C@]2(C)C1` (stereo partly shown) [Tetrahydronootkatone, tetrahydronootkatone]: the “# Alive/10” value in data set [1] (0.002%, 1 hr) is given as 10; in data set [1] (0.002%, 24 hr), 10; in data set [1] (0.004%, 1 hr), 10; in data set [1] (0.004%, 24 hr) it was 10; in data set [1] (0.008%, 1 hr), 9; in data set [1] (0.008%, 24 hr) it was 9. Further, the “# Alive/10” value in data set [1] (0.016%, 1 hr) is given as 7; in data set [1] (0.016%, 24 hr) it was 7; in data set [1] (0.031%, 1 hr) it was 7; in data set [1] (0.031%, 24 hr) it was 7; in data set [1] (0.063%, 1 hr) it was 6; in data set [1] (0.063%, 24 hr), 5. For the same molecule, the “# Alive/10” value was found to be 6 in data set [1] (0.125%, 1 hr); 4 in data set [1] (0.125%, 24 hr); 5 in data set [1] (0.25%, 1 hr); 1 in data set [1] (0.25%, 24 hr). In addition, the LC50 in data set [1] is recorded as 0.0780%.
